Source: patent publication US6387909B1, “Thienopyranecarboxamide derivatives” (Recordati S.A. Chemical and Pharmaceutical Company, priority 1999, dated 2002)

Legend:
α1L adrenoceptor = target: T1, α1L adrenoceptor (Oryctolagus cuniculus, UniProt O02824); experiment: Functional antagonism of noradrenaline-induced contractions of rabbit aorta pretreated with chloroethylclonidine; type: biochemical; settings: NA-induced contractions
T1 sequence (O02824 1-466): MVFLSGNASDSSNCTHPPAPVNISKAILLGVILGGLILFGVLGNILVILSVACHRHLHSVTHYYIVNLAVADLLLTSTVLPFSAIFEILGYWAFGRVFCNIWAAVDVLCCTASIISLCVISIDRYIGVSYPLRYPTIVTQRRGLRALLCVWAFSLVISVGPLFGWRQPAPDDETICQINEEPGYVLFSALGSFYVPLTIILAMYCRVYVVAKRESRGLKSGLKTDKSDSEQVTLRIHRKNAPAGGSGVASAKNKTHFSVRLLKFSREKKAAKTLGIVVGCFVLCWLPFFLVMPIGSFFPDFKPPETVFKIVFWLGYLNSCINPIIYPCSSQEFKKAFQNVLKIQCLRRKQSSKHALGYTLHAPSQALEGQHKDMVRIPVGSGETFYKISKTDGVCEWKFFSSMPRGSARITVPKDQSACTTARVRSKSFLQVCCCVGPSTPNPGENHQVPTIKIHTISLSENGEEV
Protocol: Adult male New Zealand rabbits were sacrificed by cervical dislocation. The aorta was removed, placed in Krebs-Henseleit buffer and dissected free of adhering tissue. […] Desmethylimipramine (0.1 μM) and corticosterone (1 μM) to block neuronal and extraneuronal uptake of NA, (±)-propranol (1 μM) to block β adrenoceptors and yohimbine (0.1 μM) to block α2 adrenoceptors were added to the buffer.
The preparations were equilibrated for 60 minutes and then primed every 30 minutes with 10 μM NA for three times. The aortic rings were then incubated with the alkylating agent chloroethylclonidine (50 μM) for 30 minutes and then washed extensively three times, over a 30 min period before constructing the NA-concentration/response curve. Following washing, tissue was re-equilibrated for 45 min. Test drug was added and after 30 minutes, a second cumulative-NA-concentration/response curve was constructed. Each antagonist concentration was tested using 2-3 aortic rings from different rabbits.
Dose ratios (i.e., the ratio between the concentrations of noradrenaline required to produce half-maximal response in the presence and in the absence of the test antagonist) were calculated at each concentration of the compounds. The logarithm of these dose ratio −1 was plotted against the logarithm of the compound concentrations (Schild plot) to evaluate the affinity constant Kb.
When only one or two concentrations of the test compounds were utilised, the apparent Kb value was calculated using the formula: Kb=[B]/(DOSE RATIO-1), where B is the antagonist concentration.

[1] = target: T2, recombinant α1d-adrenoceptor (Homo sapiens, UniProt P25100); experiment: Radioligand binding ([3H]prazosin) to cloned α1d adrenoceptor; settings: read-out: Affinity (Ki) α1d
T2 construct: expressed in transfected cells
T2 sequence (P25100 1-572): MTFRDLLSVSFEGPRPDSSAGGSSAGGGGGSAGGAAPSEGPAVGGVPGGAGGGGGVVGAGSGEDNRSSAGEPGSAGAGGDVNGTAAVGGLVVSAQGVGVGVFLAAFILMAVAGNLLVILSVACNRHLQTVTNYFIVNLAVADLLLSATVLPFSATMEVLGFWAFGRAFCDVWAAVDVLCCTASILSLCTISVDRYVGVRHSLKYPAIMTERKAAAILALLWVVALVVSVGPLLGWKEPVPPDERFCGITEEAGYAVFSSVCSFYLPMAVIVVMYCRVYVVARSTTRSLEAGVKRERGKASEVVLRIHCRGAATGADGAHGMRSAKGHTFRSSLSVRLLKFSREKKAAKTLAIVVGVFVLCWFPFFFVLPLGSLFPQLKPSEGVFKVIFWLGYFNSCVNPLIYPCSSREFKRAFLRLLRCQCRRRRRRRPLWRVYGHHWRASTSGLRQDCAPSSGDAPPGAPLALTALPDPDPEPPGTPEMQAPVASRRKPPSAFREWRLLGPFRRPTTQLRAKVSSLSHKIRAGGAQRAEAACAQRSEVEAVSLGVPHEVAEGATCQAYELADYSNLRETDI
Protocol: Determination of affinity for cloned subtypes of the α1-adrenoceptor was performed in membranes from cells transfected by electroporation with DNA expressing the genes encoding each α1-adrenoceptor subtype.
Non-specific binding was determined in the presence of 10 μM phentolamine. Incubation was stopped by addition of ice-cold Tris buffer and rapid filtration through Schleicher & Schuell GF52 filters that had been pretreated with 0.2%-polyethyleneimine.
Data were expressed as mean of Ki.

| Structure (SMILES) | pKb, functional affinity for the α1L adrenoceptor subtype (α1L adrenoceptor) | Ki [1] [nM] |
| --- | --- | --- |
| COc1ccccc1N1CCN(CCCNC(=O)c2csc3c(=O)cc(-c4ccccc4)oc23)CC1 [Example 2, N-{3-[4-(2-Methoxyphenyl)-1-piperazinyl]propyl}-7-oxo-5-phenyl-7H-thieno[3,2-b]pyran-3-carboxamide] | 8.85 | 2.46 |
| O=C(NCCCN1CCN(c2ccccc2OCC(F)(F)F)CC1)c1csc2c(=O)cc(-c3ccccc3)oc12 [Example 5, 7-Oxo-5-phenyl-N-{3-[4-[2-(2,2,2-trifluoroethoxy)phenyl]-1-piperazinyl]propyl}-7H-thieno[3,2-b]pyran-3-carboxamide] | 9.12 | 1.01 |
